One compound from ChEMBL document CHEMBL3779883, “Design and Synthesis of Nonpeptide Inhibitors of Hepatocyte Growth Factor Activation” (ACS Med Chem Lett, 2016) can be followed below.

The target of series [1] is T1, Suppressor of tumorigenicity 14 protein (Homo sapiens, UniProt Q9Y5Y6).
T1 sequence (Q9Y5Y6 whole entry): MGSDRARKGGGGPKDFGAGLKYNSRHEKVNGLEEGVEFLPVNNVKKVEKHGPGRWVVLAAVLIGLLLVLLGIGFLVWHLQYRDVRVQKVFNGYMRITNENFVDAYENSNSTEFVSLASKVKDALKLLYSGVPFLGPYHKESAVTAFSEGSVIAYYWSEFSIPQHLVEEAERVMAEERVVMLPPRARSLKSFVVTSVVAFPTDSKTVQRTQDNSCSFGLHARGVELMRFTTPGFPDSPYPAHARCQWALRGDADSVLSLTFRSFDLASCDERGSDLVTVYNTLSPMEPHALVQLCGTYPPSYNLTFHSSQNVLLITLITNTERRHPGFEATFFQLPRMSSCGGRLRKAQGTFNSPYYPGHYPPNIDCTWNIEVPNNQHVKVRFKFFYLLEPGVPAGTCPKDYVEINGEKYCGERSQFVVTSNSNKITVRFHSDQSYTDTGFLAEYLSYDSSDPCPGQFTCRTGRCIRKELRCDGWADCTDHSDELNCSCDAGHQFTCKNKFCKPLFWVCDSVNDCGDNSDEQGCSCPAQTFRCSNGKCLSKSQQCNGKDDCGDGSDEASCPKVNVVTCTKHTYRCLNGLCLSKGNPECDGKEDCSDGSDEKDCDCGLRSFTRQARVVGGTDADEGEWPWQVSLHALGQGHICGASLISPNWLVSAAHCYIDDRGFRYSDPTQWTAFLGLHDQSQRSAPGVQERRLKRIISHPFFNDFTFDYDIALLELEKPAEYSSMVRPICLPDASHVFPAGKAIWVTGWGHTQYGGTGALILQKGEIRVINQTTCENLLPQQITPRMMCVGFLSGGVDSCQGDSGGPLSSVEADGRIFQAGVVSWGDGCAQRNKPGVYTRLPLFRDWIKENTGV
As to the kind of experiment: Inhibition of human recombinant matripase catalytic domain using H2N(EEdansyl)GKQLRVVNGG (KDabcyl)-NH2 as substrate by fluorometric analysis.

In series [2] the target is Serine protease hepsin (Homo sapiens, UniProt P05981). As to the kind of experiment: Inhibition of human recombinant hepsin using H2N(EEdansyl)GKQLRVVNGG (KDabcyl)-NH2 as substrate by fluorometric analysis.
Sequence of Serine protease hepsin (P05981 1-162 limits assumed): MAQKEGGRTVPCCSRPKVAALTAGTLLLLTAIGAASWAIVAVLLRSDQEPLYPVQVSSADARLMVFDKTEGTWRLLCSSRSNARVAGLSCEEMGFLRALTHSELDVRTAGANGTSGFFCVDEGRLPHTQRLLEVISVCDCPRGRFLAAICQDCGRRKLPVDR
Sequence of Serine protease hepsin (P05981 163-417 limits assumed): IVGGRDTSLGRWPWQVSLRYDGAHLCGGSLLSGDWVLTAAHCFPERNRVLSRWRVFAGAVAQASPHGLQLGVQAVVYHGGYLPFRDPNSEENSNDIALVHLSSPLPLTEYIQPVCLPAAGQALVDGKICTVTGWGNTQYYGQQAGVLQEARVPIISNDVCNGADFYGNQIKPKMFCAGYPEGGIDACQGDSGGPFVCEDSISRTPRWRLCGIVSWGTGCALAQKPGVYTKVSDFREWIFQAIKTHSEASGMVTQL
Series [3] has as its target T2, Hepatocyte growth factor activator serine protease (Homo sapiens, UniProt Q04756).
T2 sequence (Q04756 whole entry): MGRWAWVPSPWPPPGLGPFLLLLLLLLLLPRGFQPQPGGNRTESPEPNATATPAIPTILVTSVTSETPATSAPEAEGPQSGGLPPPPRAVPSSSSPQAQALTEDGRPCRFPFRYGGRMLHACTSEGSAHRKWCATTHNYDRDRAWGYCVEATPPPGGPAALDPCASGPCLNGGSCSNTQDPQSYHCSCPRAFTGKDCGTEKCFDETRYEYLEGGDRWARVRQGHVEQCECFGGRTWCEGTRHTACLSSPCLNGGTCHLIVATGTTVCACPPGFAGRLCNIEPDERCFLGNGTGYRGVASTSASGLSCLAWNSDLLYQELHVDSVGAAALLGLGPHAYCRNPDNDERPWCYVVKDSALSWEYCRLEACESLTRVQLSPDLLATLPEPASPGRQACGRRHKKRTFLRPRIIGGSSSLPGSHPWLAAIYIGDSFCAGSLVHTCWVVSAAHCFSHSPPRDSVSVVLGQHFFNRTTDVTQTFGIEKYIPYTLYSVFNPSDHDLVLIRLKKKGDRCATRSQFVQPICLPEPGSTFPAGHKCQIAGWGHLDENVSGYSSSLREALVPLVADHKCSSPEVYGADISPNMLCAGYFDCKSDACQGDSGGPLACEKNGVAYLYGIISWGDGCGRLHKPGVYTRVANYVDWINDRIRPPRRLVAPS
As to the kind of experiment: Inhibition of human recombinant hepatocyte growth factor activator using H2N(EEdansyl)GKQLRVVNGG (KDabcyl)-NH2 as substrate by fluorometric analysis. It counts as single protein.

Series [4] has as its target Trypsin (Homo sapiens, UniProt P07477+P07478+P35030). As to the kind of experiment: Inhibition of human recombinant trypsin using H2N(EEdansyl)GKQLRVVNGG (KDabcyl)-NH2 as substrate by fluorometric analysis. It counts as protein assay.
In series [5] the target is Prothrombin (Homo sapiens, UniProt P00734). As to the kind of experiment: Inhibition of human recombinant thrombin using H2N(EEdansyl)GKQLRVVNGG (KDabcyl)-NH2 as substrate by fluorometric analysis.
The target of series [6] is Coagulation factor X (Homo sapiens, UniProt P00742). As to the kind of experiment: Inhibition of human recombinant factor 10a using H2N(EEdansyl)GKQLRVVNGG (KDabcyl)-NH2 as substrate by fluorometric analysis.
Sequence of Coagulation factor X (P00742 41-179 limits assumed): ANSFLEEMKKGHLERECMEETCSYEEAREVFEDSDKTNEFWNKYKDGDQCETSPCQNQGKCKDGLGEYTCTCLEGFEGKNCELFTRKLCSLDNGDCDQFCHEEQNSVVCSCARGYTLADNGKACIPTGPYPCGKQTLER
Sequence of Coagulation factor X (P00742 235-488 limits assumed): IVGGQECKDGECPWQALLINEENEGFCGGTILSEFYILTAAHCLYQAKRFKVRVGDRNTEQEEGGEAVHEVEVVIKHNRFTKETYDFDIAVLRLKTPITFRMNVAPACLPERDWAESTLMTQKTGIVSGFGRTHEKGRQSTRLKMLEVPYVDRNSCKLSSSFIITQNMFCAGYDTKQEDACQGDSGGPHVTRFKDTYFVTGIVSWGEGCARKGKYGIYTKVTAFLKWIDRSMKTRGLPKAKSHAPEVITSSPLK
Series [7] deals with Hepatocyte growth factor activator/Serine protease hepsin/Suppressor of tumorigenicity 14 protein (Homo sapiens) (UniProt Q9Y5Y6+P05981+Q04756). As to the kind of experiment: Inhibition of matripase/hepsin/hepatocyte growth factor activator-mediated HGF activation in human 18Co fibroblasts assessed as scattering of human DU145 cells after 24 hrs by crystal violet staining method. It counts as cell-based.
Sequence of Hepatocyte growth factor activator/Serine protease hepsin/Suppressor of tumorigenicity 14 protein (Homo sapiens) (P05981 whole entry, looked up, one chain of several): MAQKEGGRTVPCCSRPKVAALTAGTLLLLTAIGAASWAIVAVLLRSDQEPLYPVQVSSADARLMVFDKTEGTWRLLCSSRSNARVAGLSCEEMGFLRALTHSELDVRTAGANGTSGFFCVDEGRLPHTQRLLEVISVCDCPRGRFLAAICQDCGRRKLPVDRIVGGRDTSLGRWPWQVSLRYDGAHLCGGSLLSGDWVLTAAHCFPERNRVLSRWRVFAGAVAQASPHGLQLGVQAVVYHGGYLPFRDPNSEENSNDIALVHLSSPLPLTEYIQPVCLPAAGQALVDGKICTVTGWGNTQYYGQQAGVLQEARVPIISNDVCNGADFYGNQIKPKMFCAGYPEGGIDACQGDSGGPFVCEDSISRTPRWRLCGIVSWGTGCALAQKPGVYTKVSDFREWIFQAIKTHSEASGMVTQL

Series [8] in a line: Kinetic solubility of the compound at pH 7.4. It counts as physicochemical. The conditions noted are these: buffer, read-out: Kinetic_solubility.
A short description of series [9]: Lipophilicity, logD of the compound at pH 7.4 by shake-flask method. It counts as physicochemical. To be noted: buffer.
The nature of series [10]: Half life in human liver microsomes by LC/MS analysis. It counts as ADME.
A short description of series [11]: Half life in mouse liver microsomes by LC/MS analysis. It counts as ADME. On the technique in general: Liver microsomes are a subcellular fraction often used to study metabolism.
Series [12] in a line: Half life in mouse at 1 mg/kg, iv. The conditions noted are these: in vivo. It counts as ADME, organism-based.
A short description of series [13]: Clearance in mouse at 1 mg/kg, iv. The conditions noted are these: in vivo. It counts as ADME, organism-based.
A short description of series [14]: Volume of distribution in mouse at 1 mg/kg, iv. It counts as ADME, organism-based. To be noted: in vivo.
A short description of series [15]: AUC in mouse at 1 mg/kg, iv. It counts as ADME, organism-based. The conditions noted are these: in vivo.
Series [16] in a line: Cmax in mouse at 5 mg/kg, po. The conditions noted are these: in vivo. It counts as ADME, organism-based. Also on record: dose 5 mg/kg, route oral.
A short description of series [17]: AUC in mouse at 5 mg/kg, po. To be noted: in vivo. It counts as ADME, organism-based.
Series [18] is described as follows: Oral bioavailability in mouse at 5 mg/kg. To be noted: in vivo. It counts as ADME, organism-based.

In brackets after ≈: the same amount, converted by molar mass. Some results are limits rather than exact numbers.

In general, Ki refers to the dissociation constant of the complex between target and ligand, obtained from inhibition or displacement. One may read the logD as the decadic logarithm of the distribution of all forms, ionised or not, between an organic phase and buffer at a given pH. A low value points to a more hydrophilic compound. A word on the half-life: it is the time in which the quantity being followed falls by half. Low values mean rapid decline, high ones slow decline. As usually defined, the clearance is the volume of plasma or blood freed of the substance per unit of time. A low value points to a low capacity for elimination. As usually defined, the Vd is a proportionality between amount in the body and measured concentration, not a real space. A higher Vd goes with extensive tissue distribution. Broadly, the AUC is concentration integrated over time. Read a high AUC as more exposure. For orientation: Cmax means the peak of the concentration-time curve. For orientation: bioavailability means the share of a dose that reaches the circulation, judged against a reference dose that is usually intravenous. Low readings indicate little systemic uptake, high ones much systemic uptake. As to `CC1CN(CC2CCN(Cc3ccccc3)CC2)C(=O)N(c2cccc(C(=N)N)c2)C1` (stereo not drawn), the Ki came out at 530 nM in series [1]; 540 nM in series [2]; 480 nM in [3]; 0.43 µM in series [4]; 11.6 µM in series [5]; 380 nM in series [6]. Also, the inhibition entry in [7] is “Dose-dependent effect”. Besides, the solubility kinetic in series [8] worked out at 91.6 µM (≈ 38.4 µg/mL). The logD in [9] is -0.49. Further, the half-life in series [10] is 162 min; in series [11] it was 296 min; in [12], 348 min. The clearance in [13] is 38 mL/min/kg. This compound also displayed a Vd in [14] of 4.49 L/kg. Moreover, the AUC in series [15] was 414 ng·h/mL; in [17], 3.31 ng·h/mL. The compound further had a Cmax in series [16] of 4.45 ng/mL. In addition, the bioavailability in series [18] is under 1%.
